Active and inactive are the calls of the source. No cut-off for these calls is given here.
What was measured:
Mus musculus [1] = test: Anticonvulsant activity in ip dosed Swiss albino mouse assessed as protection against maximal electroshock-induced seizures after 0.5 hrs; type: functional; conditions: read-out: MED
Mus musculus [2] = test: Anticonvulsant activity in Swiss albino mouse assessed as protection against subcutaneous pentylenetetrazole-induced seizures at 300 mg/kg, ip after 4 hrs; type: functional, organism-based; parameters: dose 300 mg/kg
Mus musculus [3] = test: Anticonvulsant activity in ip dosed Swiss albino mouse assessed as protection against maximal electroshock-induced seizures after 4 hrs; type: functional; conditions: read-out: MED
[4] = Neurotoxicity in ip dosed Swiss albino mouse assessed as maximum tolerated dose after 0.5 hrs by rotorod test; type: toxicity, organism-based; conditions: in vivo
Mus musculus [5] = test: Anticonvulsant activity in ip dosed Swiss albino mouse assessed as protection against subcutaneous pentylenetetrazole-induced seizures after 0.5 hrs; type: functional; conditions: read-out: MED
[6] = Neurotoxicity in ip dosed Swiss albino mouse assessed as maximum tolerated dose after 4 hrs by rotorod test; type: toxicity, organism-based; conditions: in vivo
Mus musculus [7] = test: Neurotoxicity in Swiss albino mouse assessed as motor impairment at 300 mg/kg, ip after 4 hrs by rotorod test; type: toxicity, organism-based; parameters: dose 300 mg/kg, route intraperitoneal; conditions: in vivo
Rattus norvegicus [8] = test: Anticonvulsant activity in Wistar rat maximal electroshock-induced seizures model assessed as time spend in hind leg tonic extensor phase at 30 mg/kg, po after 2 hrs relative to control; type: functional
Rattus norvegicus [9] = test: Anticonvulsant activity in Wistar rat maximal electroshock-induced seizures model assessed as time spend in hind leg tonic extensor phase at 30 mg/kg, po after 0.25 hrs relative to control; type: functional
Rattus norvegicus [10] = test: Anticonvulsant activity in Wistar rat maximal electroshock-induced seizures model assessed as time spend in hind leg tonic extensor phase at 30 mg/kg, po after 1 hr relative to control; type: functional
Rattus norvegicus [11] = test: Anticonvulsant activity in Wistar rat maximal electroshock-induced seizures model assessed as time spend in hind leg tonic extensor phase at 30 mg/kg, po after 4 hrs relative to control; type: functional
Rattus norvegicus [12] = test: Anticonvulsant activity in Wistar rat maximal electroshock-induced seizures model assessed as time spend in hind leg tonic extensor phase at 30 mg/kg, po after 0.5 hrs relative to control; type: functional
Rattus norvegicus [13] = test: Anticonvulsant activity in Wistar rat assessed as protection against maximal electroshock-induced seizures at 30 mg/kg, po after 2 hrs; type: functional
Rattus norvegicus [14] = test: Anticonvulsant activity in Wistar rat assessed as protection against maximal electroshock-induced seizures at 30 mg/kg, po after 1 hr; type: functional
Rattus norvegicus [15] = test: Neurotoxicity in Wistar rat assessed as motor impairment at 30 mg/kg, po by rotorod test; type: toxicity, organism-based; parameters: dose 30 mg/kg, route oral; conditions: in vivo
Rattus norvegicus [16] = test: Anticonvulsant activity in Wistar rat assessed as protection against maximal electroshock-induced seizures at 30 mg/kg, po after 4 hrs; type: functional
Mus musculus [17] = test: Anticonvulsant activity in ip dosed Swiss albino mouse assessed as protection against subcutaneous pentylenetetrazole-induced seizures after 4 hrs; type: functional; conditions: read-out: MED
Rattus norvegicus [18] = test: Anticonvulsant activity in Wistar rat assessed as protection against maximal electroshock-induced seizures at 30 mg/kg, po after 0.25 hrs; type: functional
Rattus norvegicus [19] = test: Anticonvulsant activity in Wistar rat assessed as protection against maximal electroshock-induced seizures at 30 mg/kg, po after 0.5 hrs; type: functional
Mus musculus [20] = test: Neurotoxicity in Swiss albino mouse assessed as motor impairment at 300 mg/kg, ip after 0.5 hrs by rotorod test; type: toxicity, organism-based; parameters: dose 300 mg/kg, route intraperitoneal; conditions: in vivo
Mus musculus [21] = test: Anticonvulsant activity in Swiss albino mouse assessed as protection against maximal electroshock-induced seizures at 300 mg/kg, ip after 4 hrs; type: functional, organism-based; parameters: dose 300 mg/kg
Mus musculus [22] = test: Anticonvulsant activity in Swiss albino mouse assessed as protection against subcutaneous pentylenetetrazole-induced seizures at 300 mg/kg, ip after 0.5 hrs; type: functional, organism-based; parameters: dose 300 mg/kg
Mus musculus [23] = test: Anticonvulsant activity in Swiss albino mouse assessed as protection against maximal electroshock-induced seizures at 300 mg/kg, ip after 0.5 hrs; type: functional, organism-based; parameters: dose 300 mg/kg

Structure (SMILES)	minimal effective dose (Mus musculus [1]) [mg/kg]	Activity (Mus musculus [2])	minimal effective dose (Mus musculus [3]) [mg/kg]	minimal effective dose (Mus musculus [5]) [mg/kg]	MTD at 4 h [6] [mg/kg]	Activity (Mus musculus [7])	Time (Rattus norvegicus [8]) [s]	Time (Rattus norvegicus [9]) [s]	Time (Rattus norvegicus [10]) [s]	Time (Rattus norvegicus [11]) [s]	Time (Rattus norvegicus [12]) [s]	Activity (Rattus norvegicus [13]) [%]	Activity (Rattus norvegicus [14]) [%]	Activity (Rattus norvegicus [15])	Activity (Rattus norvegicus [16]) [%]	minimal effective dose (Mus musculus [17]) [mg/kg]	Activity (Rattus norvegicus [18]) [%]	Activity (Rattus norvegicus [19]) [%]	Activity (Mus musculus [20])	Activity (Mus musculus [21])	also measured
COc1cc(/C=N/NC(=O)Nc2ccc(-n3c(-c4ccccc4)nc4c(Br)cc(Br)cc4c3=O)cc2)ccc1O	100	inactive	300	300	300	–	–	–	–	–	–	–	–	–	–	–	–	–	–	–	MTD at 0.5 h [4]: 100 mg/kg
CN(C)c1ccc(/C=N/NC(=O)Nc2ccc(-n3c(-c4ccccc4)nc4c(Br)cc(Br)cc4c3=O)cc2)cc1	100	–	300	100	–	Non-toxic	11.63	12.75	7.5	11.88	10.75	0	38	Non-toxic	0	300	0	13	Non-toxic	–	–
Cc1nc2c(Br)cc(Br)cc2c(=O)n1-c1ccc(NC(=O)N/N=C/c2cccc([N+](=O)[O-])c2)cc1	100	inactive	300	300	–	Non-toxic	–	–	–	–	–	–	–	–	–	–	–	–	–	–	MTD at 0.5 h [4]: 300 mg/kg
Cc1nc2c(Br)cc(Br)cc2c(=O)n1-c1ccc(NC(=O)N/N=C/c2ccc([N+](=O)[O-])cc2)cc1	100	–	–	–	300	–	–	–	–	–	–	–	–	–	–	300	–	–	Non-toxic	inactive	Activity (Mus musculus [22]): inactive
Cc1nc2c(Br)cc(Br)cc2c(=O)n1-c1ccc(NC(=O)N/N=C/c2ccccc2)cc1	100	inactive	300	300	–	Non-toxic	–	–	–	–	–	–	–	–	–	–	–	–	Non-toxic	–	–
Cc1nc2c(Br)cc(Br)cc2c(=O)n1-c1ccc(NC(=O)N/N=C/c2ccc(O)cc2)cc1	30	–	30	100	–	Non-toxic	0	6.63	1.25	0	2.38	100	88	Non-toxic	100	300	25	75	Non-toxic	–	–
O=C(N/N=C/c1ccc(O)cc1)Nc1ccc(-n2c(-c3ccccc3)nc3c(Br)cc(Br)cc3c2=O)cc1	30	–	300	300	300	–	9	12.5	12	6.5	12.38	25	0	Non-toxic	50	300	0	0	Non-toxic	–	–
O=C(N/N=C/c1ccccc1)Nc1ccc(-n2c(-c3ccccc3)nc3c(Br)cc(Br)cc3c2=O)cc1	100	–	300	300	300	–	–	–	–	–	–	–	–	–	–	300	–	–	–	–	MTD at 0.5 h [4]: 100 mg/kg
O=C(N/N=C/c1ccc([N+](=O)[O-])cc1)Nc1ccc(-n2c(-c3ccccc3)nc3c(Br)cc(Br)cc3c2=O)cc1	–	inactive	–	300	–	–	–	–	–	–	–	–	–	–	–	–	–	–	–	inactive	Activity (Mus musculus [23]): inactive
CCC1(C)CC(=O)NC1=O (configuration not stated) [ETHOSUXIMIDE]	–	–	–	100	–	Non-toxic	–	–	–	–	–	–	–	–	–	300	–	–	Non-toxic	inactive	Activity (Mus musculus [23]): inactive
Cc1nc2c(Br)cc(Br)cc2c(=O)n1-c1ccc(NC(=O)N/N=C/c2ccc(N(C)C)cc2)cc1	30	–	30	100	300	–	0	8.38	1.38	0	2.88	100	88	Non-toxic	100	300	25	75	–	–	MTD at 0.5 h [4]: 300 mg/kg
COc1cc(/C=N/NC(=O)Nc2ccc(-n3c(C)nc4c(Br)cc(Br)cc4c3=O)cc2)ccc1O	30	–	100	100	–	Non-toxic	12.38	12.88	9.5	12.25	5.88	0	25	Non-toxic	0	300	0	50	Non-toxic	–	–
O=C(N/N=C/c1ccc(Cl)cc1)Nc1ccc(-n2c(-c3ccccc3)nc3c(Br)cc(Br)cc3c2=O)cc1	–	inactive	–	–	–	–	–	–	–	–	–	–	–	–	–	–	–	–	–	inactive	Activity (Mus musculus [22]): inactive; Activity (Mus musculus [23]): inactive
Cc1nc2c(Br)cc(Br)cc2c(=O)n1-c1ccc(NC(=O)N/N=C/c2ccc(Cl)cc2)cc1	300	inactive	–	–	–	–	–	–	–	–	–	–	–	–	–	–	–	–	–	inactive	Activity (Mus musculus [22]): inactive
O=C1NC(=O)C(c2ccccc2)(c2ccccc2)N1 [PHENYTOIN]	30	inactive	30	–	–	–	1.88	7.13	2.63	1.38	0	75	75	Non-toxic	75	–	25	100	–	–	Activity (Mus musculus [22]): inactive
O=C(N/N=C/c1cccc([N+](=O)[O-])c1)Nc1ccc(-n2c(-c3ccccc3)nc3c(Br)cc(Br)cc3c2=O)cc1	–	–	–	–	–	–	–	–	–	–	–	–	–	–	–	300	–	–	–	inactive	Activity (Mus musculus [22]): inactive; Activity (Mus musculus [23]): inactive

Reference: ChEMBL document CHEMBL2016453, “Design, synthesis and anticonvulsant activities of novel 1-(substituted/unsubstituted benzylidene)-4-(4-(6,8-dibromo-2-(methyl/phenyl)-4-oxoquinazolin-3(4H)-yl)phenyl) semicarbazide derivatives” (Bioorg Med Chem Lett, 2012)
